≈ marks a conversion by molar mass, not a printed value. Where “and” joins values, the source holds several entries; their conditions need not be identical. Equal values may be shown once.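 Each compound was tested at five concentrations against cells in 96-well plates for 48 hours. At the GI50, growth is halved. TGI denotes the concentration required for complete inhibition of growth.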 Calls of active or inactive are those of the source. Cut-off read from the data, not from the text of the source: active = GI50 below about 0.43 µM; inactive = the rest.
How the values were obtained:
Assay in all cases: DTP human tumour cell line panel, 48 h
HS 578T breast = tested on: HS 578T breast
MDA-MB-435 = tested on: MDA-MB-435
MDA-N = tested on: MDA-N
DMS 114 small cell lung = tested on: DMS 114 small cell lung
DMS 273 small cell lung = tested on: DMS 273 small cell lung
HOP-18 NSCLC = tested on: HOP-18 NSCLC
LXFL 529 NSCLC = tested on: LXFL 529 NSCLC
M19-MEL melanoma = tested on: M19-MEL melanoma
XF 498 CNS = tested on: XF 498 CNS

## O=C(O)c1cc2ccccc2c(O)c1O
HS 578T breast
  TGI: 45.4 µM
MDA-MB-435
  TGI: 3.33 µM
MDA-N
  TGI: 4.01 µM

## Cc1c(N=Nc2ccc([N+](=O)[O-])cc2)nc2scc(-c3ccccc3)n12
HS 578T breast
  TGI: > 100 µM
MDA-MB-435
  TGI: > 100 µM
MDA-N
  TGI: > 100 µM

## O=C(/C=C/c1ccc(OCC(=O)N2CCN(c3ccccc3)CC2)cc1)c1ccc(Cl)cc1
DMS 114 small cell lung
  TGI: > 100 µM
DMS 273 small cell lung
  TGI: > 100 µM
HOP-18 NSCLC
  TGI: > 100 µM
HS 578T breast
  TGI: 62.3 µM
LXFL 529 NSCLC
  TGI: > 100 µM
M19-MEL melanoma
  TGI: > 100 µM
MDA-MB-435
  TGI: > 100 µM
MDA-N
  TGI: > 100 µM

## Nc1ccccc1C#C/C=C\C#Cc1ccccc1C(F)(F)F
HS 578T breast
  GI50: 1.26 µM
  TGI: 25.2 µM
MDA-MB-435
  GI50: 0.355 µM
  TGI: 1.3 µM

## COc1c(O)c2c(c3cc(C(=O)N4CCc5c4c(O)c(OC)c4[nH]c(C(=O)N6CC7CC78C6=CC(=O)c6[nH]cc(C)c68)cc54)[nH]c13)CCN2C(N)=O (stereo unspecified)
DMS 114 small cell lung
  GI50: 2.76 ng/mL
  TGI: 15.1 nM and 0.0121 µg/mL
DMS 273 small cell lung
  GI50: 1.98 ng/mL (≈ 0.00282 µM)
  TGI: 7.18 nM and 0.0106 µg/mL
HOP-18 NSCLC
  GI50: 0.0126 µM
  TGI: 0.0856 µM
  outcome: inactive
HS 578T breast
  TGI: 3.41 µM
LXFL 529 NSCLC
  TGI: 0.0329 µM
  outcome: inactive
M19-MEL melanoma
  GI50: 16.5 ng/mL (≈ 0.0235 µM)
  TGI: 14.8 nM and 0.041 µg/mL
MDA-MB-435
  TGI: 0.783 µM
MDA-N
  TGI: 22.3 µM

## CCCC[C@H]1C(=O)O[C@H](C)[C@H](NC(=O)c2cccc(NC=O)c2O)C(=O)O[C@@H](C)[C@@H]1OC(=O)CC(C)C
HS 578T breast
  TGI: 37.7 µM
MDA-MB-435
  TGI: 44.6 µM
MDA-N
  TGI: 51.9 µM

## O=C1NC(=S)NC(=O)C1=Cc1cc2c(cc1[N+](=O)[O-])OCO2
DMS 114 small cell lung
  TGI: 87.3 µM
DMS 273 small cell lung
  TGI: > 100 µM
HOP-18 NSCLC
  TGI: > 100 µM
M19-MEL melanoma
  TGI: > 100 µM

## N#Cc1c(C(=O)c2ccccc2)cnn1-c1ccccc1
HS 578T breast
  GI50: > 25 µM
  TGI: > 25 µM
MDA-MB-435
  GI50: > 25 µM
  TGI: > 25 µM

## Cc1ccccc1-c1c(N)nc(NC#N)nc1C(=O)Nc1ccccc1
DMS 114 small cell lung
  TGI: > 100 µM
DMS 273 small cell lung
  TGI: > 100 µM
HOP-18 NSCLC
  TGI: > 100 µM
LXFL 529 NSCLC
  TGI: > 100 µM
M19-MEL melanoma
  TGI: > 100 µM

## C[C@@H]1C=C(CCCCCCCCCCC[C@H](O)[C@@H]2CCC(=O)O2)C(=O)O1
MDA-MB-435
  GI50: 24.3 µM
  TGI: 60.2 µM

## C(=N\Nc1ccccn1)/c1ccccn1
HS 578T breast
  GI50: 1.41 µM
  TGI: > 100 µM
MDA-MB-435
  GI50: 0.483 µM
  TGI: > 100 µM

## O=c1cccc(C#CC#C[C@H]2O[C@@H]2CO)o1
HS 578T breast
  GI50: 2.91 µM
  TGI: 9.69 µM
MDA-MB-435
  GI50: 0.474 µM
  TGI: 1.21 µM

## OC1(C(O)(c2ccc(-c3ccccc3)cc2)c2ccc(-c3ccccc3)cc2)CCCCC1
HS 578T breast
  TGI: > 100 µM
MDA-MB-435
  TGI: > 100 µM
MDA-N
  TGI: > 100 µM

## Cc1cn(C2CC(F)C(CO)O2)c(=O)[nH]c1=O (stereo unspecified)
HS 578T breast
  GI50: > 100 µM
  TGI: > 100 µM
MDA-MB-435
  GI50: > 100 µM
  TGI: > 100 µM

## O=C(O)C(=Cc1ccnc2ccccc12)C(=O)O
HS 578T breast
  TGI: > 100 µM
MDA-N
  TGI: > 100 µM

## COc1ccccc1-[n+]1cc(-c2ccc(-c3ccccc3)cc2)n2c1CCCCC2
HS 578T breast
  GI50: 1.07 µM
  TGI: 31.8 µM
MDA-MB-435
  GI50: 0.27 µM
  TGI: 3.6 µM

## O=C1CCC(Cc2ccc(Cl)cc2Cl)C(=O)N1 (stereo unspecified)
HS 578T breast
  TGI: > 100 µM
MDA-MB-435
  TGI: > 100 µM

## CC(=O)Nc1ccc(C(=O)N2N=C(C)/C(=C/c3ccccc3O)C2=O)cc1
DMS 114 small cell lung
  TGI: > 100 µM
DMS 273 small cell lung
  TGI: > 100 µM
HOP-18 NSCLC
  TGI: > 100 µM
M19-MEL melanoma
  TGI: > 100 µM
XF 498 CNS
  TGI: > 100 µM

## O=C(O)CNc1c2ccccc2nc2ccccc12
DMS 114 small cell lung
  TGI: > 100 µM
DMS 273 small cell lung
  TGI: > 100 µM
LXFL 529 NSCLC
  TGI: > 100 µM
XF 498 CNS
  TGI: > 100 µM

## N#CC(NNC(=O)c1ccccc1O)c1ccc(O)cc1 (stereo unspecified)
DMS 114 small cell lung
  TGI: 8.62 µM
DMS 273 small cell lung
  TGI: > 100 µM
HOP-18 NSCLC
  TGI: > 100 µM
LXFL 529 NSCLC
  TGI: > 100 µM
M19-MEL melanoma
  TGI: > 100 µM

## NC(=O)c1cnc(N[C@@H]2CCCC[C@@H]2N)nc1Nc1cccc(-n2nccn2)c1
HS 578T breast
  GI50: 3.37 µM
  TGI: 20.7 µM
MDA-MB-435
  GI50: 3.03 µM
  TGI: 10.9 µM

## C/C(=N/S(=O)(=O)c1ccc(Cl)c(Cl)c1)OCC(C)(C)C
HS 578T breast
  TGI: > 100 µM
MDA-MB-435
  TGI: > 100 µM
MDA-N
  TGI: > 100 µM

## O=Cc1c(-c2cc(O)ccc2O)nc2sccn12
HS 578T breast
  GI50: 35.7 µM
  TGI: > 100 µM
MDA-MB-435
  GI50: 15.6 µM
  TGI: 34.2 µM

## CC1=C(/C=C/C(C)=C\C=C\C(C)=C\C(=O)Nc2ccc3c(c2)OCO3)C(C)(C)CCC1
HS 578T breast
  GI50: > 100 µM
  TGI: > 100 µM
MDA-MB-435
  GI50: 16.7 µM
  TGI: > 100 µM
MDA-N
  GI50: 55.7 µM
  TGI: > 100 µM

## COc1ccc2[nH]c(-c3ccccn3)cc(=O)c2c1
DMS 114 small cell lung
  GI50: 22.6 µM
  TGI: 71.4 µM
HOP-18 NSCLC
  TGI: > 100 µM
LXFL 529 NSCLC
  TGI: > 100 µM
M19-MEL melanoma
  TGI: > 100 µM

## O=C1c2cccc3cc([N+](=O)[O-])cc(c23)C(=O)N1CCNCCNCCNCCN1C(=O)c2cccc3cc([N+](=O)[O-])cc(c23)C1=O
DMS 114 small cell lung
  TGI: 0.41 µM and 0.264 µM
DMS 273 small cell lung
  TGI: 0.177 µM and 0.23 µM
LXFL 529 NSCLC
  TGI: 0.496 µM

## CC12CCC3C(CC=C4CC(O)CCC43C)C1C/C(=C\N1CCCC1)C2=O (stereo unspecified)
HS 578T breast
  GI50: 60.8 µM
  TGI: > 100 µM
MDA-MB-435
  GI50: > 100 µM
  TGI: > 100 µM

## O=C(/C=C/c1cccnc1)NCCCCC1CCN(C(=O)c2ccccc2)CC1
HS 578T breast
  GI50: > 100 µM
  TGI: > 100 µM
MDA-MB-435
  GI50: < 0.01 µM
  TGI: > 100 µM

## CCN1C2=NC(=O)N(C)C(=O)C2(Cl)C(C(SC)S(=O)(=O)c2ccc(C)cc2)c2ccccc21 (stereo unspecified)
DMS 114 small cell lung
  TGI: > 100 µM
DMS 273 small cell lung
  TGI: > 100 µM
LXFL 529 NSCLC
  TGI: 59.3 µM
M19-MEL melanoma
  TGI: 61.5 µM
XF 498 CNS
  TGI: > 100 µM

## [N-]=[N+]=NC(c1cn(C2CC(O)C(CO)O2)c(=O)[nH]c1=O)C(Br)I (stereo unspecified)
DMS 114 small cell lung
  TGI: > 100 µM
DMS 273 small cell lung
  TGI: > 100 µM
LXFL 529 NSCLC
  TGI: > 100 µM
M19-MEL melanoma
  TGI: > 100 µM

## Cc1cccc(-c2nc3c(C(=O)NCCN(C)C)cccc3[nH]2)c1
DMS 114 small cell lung
  TGI: 2.51 µM
DMS 273 small cell lung
  TGI: 1.59 µM
HOP-18 NSCLC
  TGI: 4.85 µM
M19-MEL melanoma
  TGI: 3.03 µM

## CC(=O)OC[C@H]1O[C@@H](n2ccc(=O)[nH]c2=O)[C@H](OC(C)=O)[C@@H]1OC(C)=O
HS 578T breast
  GI50: > 100 µM
  TGI: > 100 µM
MDA-MB-435
  GI50: > 100 µM
  TGI: > 100 µM

## CCCCCCCCCCCCCCCCCC(=O)OCC(CN(C)CCN(C)C)OC(=O)CCCCCCCCCCCCCCCCC (stereo unspecified)
DMS 114 small cell lung
  TGI: > 100 µM
DMS 273 small cell lung
  TGI: > 100 µM
HOP-18 NSCLC
  TGI: 89 µM
LXFL 529 NSCLC
  TGI: > 100 µM
